Earlier results on two compounds are cited in patent US7422908B2, “Chemiluminescent 1,2-dioxetanes” (priority 2002, dated 2008).

The conditions of series [1]: compared with 1,2-dioxetanes (14) and (15); CH3 group replaced with CH2CH2CH2COOH.
For series [2] the following is noted: thermal decomposition.

On to `O=C(O)CCCOC1(c2cccc(OP(=O)(O)O)c2)OOC12C1CC3CC(C1)CC2C3` (centres unmarked) [Dioxetane 16], for which the “solubility in an aqueous system” value in series [1] was “more soluble in an aqueous system than 1,2-dioxetane (14) and (15)”.
In the case of `C1C2CC3CC1CC(C2)C31OOC12C1CC3CC(C1)CC2C3` (centres unmarked) [Dioxetane 5], in series [2], the “decomposes at (temperature)” value was 150 °C.
